Results from patent EP0442769A2 (priority 1990, dated 1991).

Tested on: membrane érythrocytaire
Test: Membrane adsorption at haematocrit 45%
Type: in vitro ADME
Settings: not given
Description: (§1) Ces composés ont été également testés pour leur absorption membranaire et stabilité érythrocitaire et plasmatique.

Row | Compound | Adsorption membranaire à Hte 45% [%]
1 | COP(=O)(O)Oc1ccc2c3c1O[C@H]1C(=O)CC[C@@]4(O)[C@@H](C2)N(CC2CC2)CC[C@]314 [naltrexone-3-phosphate(OMe)] | 10
2 | O=C1CC[C@@]2(O)[C@H]3Cc4ccc(OP(=O)(O)O)c5c4[C@@]2(CCN3CC2CC2)[C@H]1O5 [naltrexone-3-phosphate] | 22
3 | O=C1CC[C@@]2(O)[C@H]3Cc4ccc(OP(=O)(O)OP(=O)(O)OP(=O)(O)O)c5c4[C@@]2(CCN3CC2CC2)[C@H]1O5 [naltrexone-3-triphosphate] | 22

Tested on: not listed separately
Test: Stability in haemolysate
Type: in vitro ADME
Design: key: + : stable.; *a: * : stabilité dans le sérum frais à 37°C au bout de 24h : on ne retrouve que 8 à 12%, 78% et 65% de la quantité de départ dans le sérum respectivement pour (a), (b) et (c).; *b: * : stabilité dans le sérum frais à 37°C au bout de 24h : on ne retrouve que 8 à 12%, 78% et 65% de la quantité de départ dans le sérum respectivement pour (a), (b) et (c).; *c: * : stabilité dans le sérum frais à 37°C au bout de 24h : on ne retrouve que 8 à 12%, 78% et 65% de la quantité de départ dans le sérum respectivement pour (a), (b) et (c)
Settings: 4°C
Description: as §1

Row | Compound | Stabilité dans hémolysat 4°C
4 | COP(=O)(O)Oc1ccc2c3c1O[C@H]1C(=O)CC[C@@]4(O)[C@@H](C2)N(CC2CC2)CC[C@]314 [naltrexone-3-phosphate(OMe)] | +
5 | O=C1CC[C@@]2(O)[C@H]3Cc4ccc(OP(=O)(O)O)c5c4[C@@]2(CCN3CC2CC2)[C@H]1O5 [naltrexone-3-phosphate] | +
6 | O=C1CC[C@@]2(O)[C@H]3Cc4ccc(OP(=O)(O)OP(=O)(O)OP(=O)(O)O)c5c4[C@@]2(CCN3CC2CC2)[C@H]1O5 [naltrexone-3-triphosphate] | +

Same assay, conditions: 37°C

Row | Compound | Stabilité dans hémolysat 37°C
7 | COP(=O)(O)Oc1ccc2c3c1O[C@H]1C(=O)CC[C@@]4(O)[C@@H](C2)N(CC2CC2)CC[C@]314 [naltrexone-3-phosphate(OMe)] | +
8 | O=C1CC[C@@]2(O)[C@H]3Cc4ccc(OP(=O)(O)O)c5c4[C@@]2(CCN3CC2CC2)[C@H]1O5 [naltrexone-3-phosphate] | +
9 | O=C1CC[C@@]2(O)[C@H]3Cc4ccc(OP(=O)(O)OP(=O)(O)OP(=O)(O)O)c5c4[C@@]2(CCN3CC2CC2)[C@H]1O5 [naltrexone-3-triphosphate] | +

Tested on: not listed separately
Test: Stability in fresh serum
Type: in vitro ADME
Design: key to Stabilité dans sérum frais 4°C / Stabilité dans sérum frais 37°C: + : stable.; *a: * : stabilité dans le sérum frais à 37°C au bout de 24h : on ne retrouve que 8 à 12%, 78% et 65% de la quantité de départ dans le sérum respectivement pour (a), (b) et (c).; *b: * : stabilité dans le sérum frais à 37°C au bout de 24h : on ne retrouve que 8 à 12%, 78% et 65% de la quantité de départ dans le sérum respectivement pour (a), (b) et (c).; *c: * : stabilité dans le sérum frais à 37°C au bout de 24h : on ne retrouve que 8 à 12%, 78% et 65% de la quantité de départ dans le sérum respectivement pour (a), (b) et (c)
Settings: 4°C
Description: as §1

Row | Compound | Stabilité dans sérum frais 4°C
10 | COP(=O)(O)Oc1ccc2c3c1O[C@H]1C(=O)CC[C@@]4(O)[C@@H](C2)N(CC2CC2)CC[C@]314 [naltrexone-3-phosphate(OMe)] | +
11 | O=C1CC[C@@]2(O)[C@H]3Cc4ccc(OP(=O)(O)O)c5c4[C@@]2(CCN3CC2CC2)[C@H]1O5 [naltrexone-3-phosphate] | +
12 | O=C1CC[C@@]2(O)[C@H]3Cc4ccc(OP(=O)(O)OP(=O)(O)OP(=O)(O)O)c5c4[C@@]2(CCN3CC2CC2)[C@H]1O5 [naltrexone-3-triphosphate] | +

Same assay, conditions: 37°C, * = fraction of starting quantity found after 24h

Row | Compound | Stabilité dans sérum frais 37°C
13 | COP(=O)(O)Oc1ccc2c3c1O[C@H]1C(=O)CC[C@@]4(O)[C@@H](C2)N(CC2CC2)CC[C@]314 [naltrexone-3-phosphate(OMe)] | +

Same assay, conditions: 37°C, * = fraction of starting quantity found after 24h, read-out: Stabilité dans sérum frais 37°C

Row | Compound | remaining at 24 h [%]
14 | O=C1CC[C@@]2(O)[C@H]3Cc4ccc(OP(=O)(O)O)c5c4[C@@]2(CCN3CC2CC2)[C@H]1O5 [naltrexone-3-phosphate] | 8 to 12
15 | O=C1CC[C@@]2(O)[C@H]3Cc4ccc(OP(=O)(O)OP(=O)(O)OP(=O)(O)O)c5c4[C@@]2(CCN3CC2CC2)[C@H]1O5 [naltrexone-3-triphosphate] | 65

Tested on: GR chargés
Test: Extracellular leak from loaded red blood cells, 24 h incubation
Type: in vitro ADME
Settings: 4°C
Description: as §1

Row | Compound | GR chargés : Incubation 24h Fuite extra-cellulaire 4°C [%]
16 | COP(=O)(O)Oc1ccc2c3c1O[C@H]1C(=O)CC[C@@]4(O)[C@@H](C2)N(CC2CC2)CC[C@]314 [naltrexone-3-phosphate(OMe)] | 5
17 | O=C1CC[C@@]2(O)[C@H]3Cc4ccc(OP(=O)(O)O)c5c4[C@@]2(CCN3CC2CC2)[C@H]1O5 [naltrexone-3-phosphate] | 1
18 | O=C1CC[C@@]2(O)[C@H]3Cc4ccc(OP(=O)(O)OP(=O)(O)OP(=O)(O)O)c5c4[C@@]2(CCN3CC2CC2)[C@H]1O5 [naltrexone-3-triphosphate] | 0

Same assay, conditions: 37°C

Row | Compound | GR chargés : Incubation 24h Fuite extra-cellulaire 37°C [%]
19 | COP(=O)(O)Oc1ccc2c3c1O[C@H]1C(=O)CC[C@@]4(O)[C@@H](C2)N(CC2CC2)CC[C@]314 [naltrexone-3-phosphate(OMe)] | 40
20 | O=C1CC[C@@]2(O)[C@H]3Cc4ccc(OP(=O)(O)O)c5c4[C@@]2(CCN3CC2CC2)[C@H]1O5 [naltrexone-3-phosphate] | 12
21 | O=C1CC[C@@]2(O)[C@H]3Cc4ccc(OP(=O)(O)OP(=O)(O)OP(=O)(O)O)c5c4[C@@]2(CCN3CC2CC2)[C@H]1O5 [naltrexone-3-triphosphate] | 0

Biological target: T1, sites opioides de type µ (Oryctolagus cuniculus, UniProt G1TAQ8)
T1 construct: fraction membranaire brute obtenue à partir de tissu frais (cervelet de lapin, cervelet de cobaye); from tissue; host or cells: rabbit cerebellum (New Zealand rabbits), crude membrane fraction
Test: [3H]diprenorphine competition binding, crude membrane fraction of rabbit cerebellum
Design: species or system lapin
Settings: not given
Method: (§2) Les animaux utilisés sont des lapins néo-zélandais d'environ 1500 g et des cobayes tricolores d'environ 300 g.
(§3) La préparation utilisée est une fraction membranaire brute obtenue à partir de tissu frais (cervelet de lapin, cervelet de cobaye) par une méthode standard d'homogénéisation et de centrifugation différentielle. La suspension finale est en tampon tris-HCl (50 mM, pH 7,4) et contient environ 5 mg de protéine par ml.
(§4) [15,16(n)-³H] diprenorphine à 25-30 CI/mmol (Amersham International plc, Amersham, Angleterre).
(§5) Radioligand (0,3 pmol) de [³H] diprenorphine et fraction membranaire brute (0,25 mg de protéine) sont incubés pendant 1 heure à 25°C dans un volume final de 1,0 ml en tampon Tris-HCl (50 mM, pH 7,4) : • (i) en absence de toute drogue compétitrice , • (ii) en présence de 12 concentrations croissantes de la nouvelle drogue et, • (iii) en présence de 10 µmol/l de diprenorphine non radioactive.
(§6) Le contenu de chaque tube est ensuite rapidement filtré (sous vide) sur disques de fibre de verre (Whatman GF/B) disposés sur un jeu de rampes de filtration Millipore modèle 1225. Les filtres sont rincés avec 2 x 3 ml de tampon froid (O-2°C) puis séchés sous une lampe IR pendant 15 minutes. La radioactivité de chaque filtre, dans 3 ml de cocktail Ready-sol MB (Beckman) est comptée avec un compteur à scintillation liquide Kontron modèle MR 300.
(§7) A partir des paramètres mesurés, il est ensuite calculé les différentes constantes Kx pour les sites considérés.
(§8) Ces valeurs ont été calculées à partir des valeurs mesurées des concentrations CI.50 de drogue inhibant de 50 % la liaison à l'équilibre de (3H) diprenorphine utilisée à la concentration fixe de 0,3 nM.

Row | Compound | IC50 [nM] | Ki [nM]
22 | O=C1CC[C@@]2(O)[C@H]3Cc4ccc(O)c5c4[C@@]2(CCN3CC2CC2)[C@H]1O5 [naltrexone, reference compound] | 1.2 ± 0.2 | 0.3

Same assay, conditions: [3H]diprenorphine 0,3 nM, rabbit cerebellum membranes, 1 h at 25°C; (n) in brackets; read-out: I50µ (concentration inhibitrice 50)

Row | Compound | IC50 [nM]
23 | C=CCN1CC[C@]23c4c5ccc(OS(=O)(=O)O)c4O[C@H]2C(=O)CC[C@@]3(O)[C@H]1C5 [naloxone-3-sulfate] | 4300
24 | COP(=O)(O)Oc1ccc2c3c1O[C@H]1C(=O)CC[C@@]4(O)[C@@H](C2)N(CC2CC2)CC[C@]314 [naltrexone-3-phosphate(OMe)] | 130 ± 9
25 | O=C1CC[C@@]2(O)[C@H]3Cc4ccc(OP(=O)(O)O)c5c4[C@@]2(CCN3CC2CC2)[C@H]1O5 [naltrexone-3-phosphate] | 22 ± 2
26 | O=C1CC[C@@]2(O)[C@H]3Cc4ccc(OS(=O)(=O)O)c5c4[C@@]2(CCN3CC2CC2)[C@H]1O5 [naltrexone-3-sulfate] | 1540
27 | O=C1CC[C@@]2(O)[C@H]3Cc4ccc(OP(=O)(O)OP(=O)(O)OP(=O)(O)O)c5c4[C@@]2(CCN3CC2CC2)[C@H]1O5 [naltrexone-3-triphosphate] | 5.2 ± 0.4

Same assay, conditions: calculated from the measured CI.50; rabbit cerebellum membranes; read-out: KIµ (constante de dissociation apparente du composé testé)

Row | Compound | Ki [nM]
28 | C=CCN1CC[C@]23c4c5ccc(OS(=O)(=O)O)c4O[C@H]2C(=O)CC[C@@]3(O)[C@H]1C5 [naloxone-3-sulfate] | 1070
29 | COP(=O)(O)Oc1ccc2c3c1O[C@H]1C(=O)CC[C@@]4(O)[C@@H](C2)N(CC2CC2)CC[C@]314 [naltrexone-3-phosphate(OMe)] | 33
30 | O=C1CC[C@@]2(O)[C@H]3Cc4ccc(OP(=O)(O)O)c5c4[C@@]2(CCN3CC2CC2)[C@H]1O5 [naltrexone-3-phosphate] | 5.6
31 | O=C1CC[C@@]2(O)[C@H]3Cc4ccc(OS(=O)(=O)O)c5c4[C@@]2(CCN3CC2CC2)[C@H]1O5 [naltrexone-3-sulfate] | 385
32 | O=C1CC[C@@]2(O)[C@H]3Cc4ccc(OP(=O)(O)OP(=O)(O)OP(=O)(O)O)c5c4[C@@]2(CCN3CC2CC2)[C@H]1O5 [naltrexone-3-triphosphate] | 1.3

Biological target: T2, sites opioides de type k (Cavia porcellus, UniProt P41144)
T2 construct: fraction membranaire brute obtenue à partir de tissu frais (cervelet de lapin, cervelet de cobaye); from tissue; host or cells: guinea pig cerebellum (tricolour guinea pigs), crude membrane fraction
Test: [3H]diprenorphine competition binding, crude membrane fraction of guinea pig cerebellum
Design: species or system cobaye
Settings: [3H]diprenorphine 0,3 nM, guinea pig cerebellum membranes, 1 h at 25°C; (n) in brackets; read-out: I50κ (concentration inhibitrice 50)
Method: as §2, §3, §4, §5, §6, §7, §8

Row | Compound | IC50 [nM]
33 | COP(=O)(O)Oc1ccc2c3c1O[C@H]1C(=O)CC[C@@]4(O)[C@@H](C2)N(CC2CC2)CC[C@]314 [naltrexone-3-phosphate(OMe)] | 270 ± 35
34 | O=C1CC[C@@]2(O)[C@H]3Cc4ccc(OP(=O)(O)O)c5c4[C@@]2(CCN3CC2CC2)[C@H]1O5 [naltrexone-3-phosphate] | 30 ± 3
35 | O=C1CC[C@@]2(O)[C@H]3Cc4ccc(OS(=O)(=O)O)c5c4[C@@]2(CCN3CC2CC2)[C@H]1O5 [naltrexone-3-sulfate] | 2200
36 | O=C1CC[C@@]2(O)[C@H]3Cc4ccc(OP(=O)(O)OP(=O)(O)OP(=O)(O)O)c5c4[C@@]2(CCN3CC2CC2)[C@H]1O5 [naltrexone-3-triphosphate] | 15 ± 1.4

Same assay, conditions: calculated from the measured CI.50; guinea pig cerebellum membranes; read-out: KIκ (constante de dissociation apparente du composé testé)

Row | Compound | Ki [nM]
37 | COP(=O)(O)Oc1ccc2c3c1O[C@H]1C(=O)CC[C@@]4(O)[C@@H](C2)N(CC2CC2)CC[C@]314 [naltrexone-3-phosphate(OMe)] | 68
38 | O=C1CC[C@@]2(O)[C@H]3Cc4ccc(OP(=O)(O)O)c5c4[C@@]2(CCN3CC2CC2)[C@H]1O5 [naltrexone-3-phosphate] | 7.5
39 | O=C1CC[C@@]2(O)[C@H]3Cc4ccc(OS(=O)(=O)O)c5c4[C@@]2(CCN3CC2CC2)[C@H]1O5 [naltrexone-3-sulfate] | 550
40 | O=C1CC[C@@]2(O)[C@H]3Cc4ccc(OP(=O)(O)OP(=O)(O)OP(=O)(O)O)c5c4[C@@]2(CCN3CC2CC2)[C@H]1O5 [naltrexone-3-triphosphate] | 3.8
